Experimental data published in patent publication US6080750A, “Pyrimidine compound and anti-rotavirus composition” (priority 1996, dated 2000).
In brackets after ≈: the same amount, converted by molar mass. Read-outs that look alike come from different tables or passages of the source. Each block holds one compound with its values, some of them ahead of it.

What was measured:
male ICR mice = test: Toxicity test (mouse acute toxicity, minimum lethal dose); type: in vivo; settings: oral (po), male ICR mice fasted overnight, survival 14 days
Text: A test compound was orally administered to male ICR mice (weight 25-35 g) fasted overnight, and survival thereof was monitored for 14 days.

[1] = Determination of cytotoxicity (50% cell growth inhibition effect); type: cell-based, green monkey; settings: monkey; CV-1 cells, 2 days, cell count; read-out: ED50 (50% cell growth inhibition effect dose), CV-1 cells
Description: (§1) cultured cell: CV-1 cells which are green monkey kidney cell line were cultured in MEM supplemented with 10% calf serum. The culture cells were prepared to a concentration of 4×10^5 cells/ml, plated on a 24 well microplate and cultured for 2 days before use for the determination.
CV-1 cells were prepared to a concentration of 4×10^4 cells/ml with MEM containing 10% calf serum and plated on a 24 well microplate, which was followed by culture for 2 days. The culture solution thereof was changed to MEM containing 10% calf serum and serially diluted test compounds at various concentrations, and the cells were cultured for 2 days. The cells were prepared into a homogeneous single cell suspension using 0.1% crude trypsin, and counted with a Coulter counter Model D (Coulter Electronics Ltd., England).
The 50% cell growth inhibition effect dose (ED50 =μg/ml) was expressed by the concentration of the test compound, which decreased cell numbers in the control cell culture without the test compound, by 50%.

rotavirus SA-11 strain = test: Determination of antiviral activity (50% plaque reduction method); type: cell-based, rotavirus SA-11 (in CV-1 green monkey kidney cells); settings: for antiviral index (ED50 /ID50): ED50 CV-1 cells / ID50 rotavirus SA-11; for IC50: 96 h, read-out: ID50 (50% plaque inhibition dose), rotavirus SA-11
Description: Determination of activity of test compound against rotavirus and evaluation thereof
rotavirus: To a liquid containing preserved rotavirus SA-11 strain was added trypsin (Sigma, acetylated trypsin type V-S) to 10 μg/ml and incubated at 37° C. for 30 minutes to activate the […], after which the culture was diluted to a concentration of 50 plaque forming units (PFU)/0.1 ml with Eagle's minimum essential medium (MEM) and used for the determination.
as §1
Activated rotavirus SA-11 […] were inoculated at 50 PFU/0.1 ml to CV-1 cells cultured in a monolayer on a 24 well microplate. The virus was allowed to adsorb to the cells in 1.5 hours at 37° C. and the surface layer of the cells was washed three times with MEM. Then, a multilayer agar medium (mixed medium of MEM, 3 μg/ml acetylated trypsin and agar at final concentration of 0.8%, all added at 45° C.) containing aliquot of test compounds was superposed on the cell layer. The cells were incubated at 37° C. for 4 days, immobilized with formalin, stained with a crystal violet solution and counted for plaque number.
The antiviral activity was expressed by the concentration of the test compound (50% plaque inhibition dose: ID50 =μg/ml), which decreased plaques formed in the control cell culture without the test compound, by 50%.
ED50 value was divided by ID50 value and the obtained value was used as an antiviral index for the determination of selective anti-rotaviral activity on infected cells in comparison to that on normal cells (host cells).

[2] = in Chlorocebus sabaeus, rotavirus SA-11 50 PFU, CV-1 cells, 37° C., 4 days, plaque count
[3] = Rotavirus, CV-1, in Chlorocebus sabaeus

Compound: Nc1c(Cl)ncnc1NCC1(CO)CCC1 [compound 18]
mouse acute toxicity [lethal dose] (minimum lethal dose) (male ICR mice): > 500 mg/kg

IC50 (rotavirus SA-11 strain; [2]): 3.5 µg/mL (≈ 13.5 µM)
Compound: CCC(CC)(CO)CNc1cc(Cl)nc(N)n1 [compound 23]
CC50 at 48 h [1]: 80 µg/mL (≈ 309 µM)
antiviral index (ED50 /ID50) (rotavirus SA-11 strain): 23

Compound: Nc1ncc(Br)c(NCC2(CO)CCC2)n1 [compound No. 6, 2-Amino-5-bromo-4-[[(1-hydroxymethyl-1-cyclobutyl)methyl]amino]pyrimidine]
IC50 (rotavirus SA-11 strain; [2]): 2.9 µg/mL (≈ 10.1 µM)
mouse acute toxicity [lethal dose] (minimum lethal dose) (male ICR mice): > 500 mg/kg

IC50 (rotavirus SA-11 strain; [2]): 0.2 µg/mL (≈ 0.731 µM)
Compound: CCC(CC)(CO)CNc1nc(N)nc(Cl)c1N [compound 25]
CC50 at 48 h [1]: 30 µg/mL (≈ 110 µM)
antiviral index (ED50 /ID50) (rotavirus SA-11 strain): 150.0

IC50 (rotavirus SA-11 strain; [2]): 10.5 µg/mL (≈ 45.5 µM)
Compound: CC(C)(CO)CNc1cc(Cl)nc(N)n1 [compound No. 20, 2-Amino-6-chloro-4-[(3-hydroxy-2,2-dimethylpropyl)amino]pyrimidine]
CC50 at 48 h [1]: > 1 µg/mL
antiviral index (ED50 /ID50) (rotavirus SA-11 strain): > 9.5

Compound: Nc1nc(Cl)cc(NCC2(CO)CCCC2)n1 [compound 48]
mouse acute toxicity [lethal dose] (minimum lethal dose) (male ICR mice): > 500 mg/kg

Compound: Nc1nc(Cl)cc(NCC2(CO)CC(OCc3ccccc3)C2)n1 (centres unmarked) [compound 39]
mouse acute toxicity [lethal dose] (minimum lethal dose) (male ICR mice): > 500 mg/kg

Compound: Nc1nc(Cl)c(N)c(NCC2(CO)CC2)n1 [compound 58]
CC50 at 48 h [1]: > 100 µg/mL
antiviral index (ED50 /ID50) (rotavirus SA-11 strain): > 67
IC50 (rotavirus SA-11 strain; [3]): 1.5 µg/mL (≈ 6.16 µM)
mouse acute toxicity [lethal dose] (minimum lethal dose) (male ICR mice): > 1000 mg/kg

Compound: Nc1nc(Cl)cc(NCC2(CO)CC(CCc3ccccc3)C2)n1 (centres unmarked) [compound 44]
mouse acute toxicity [lethal dose] (minimum lethal dose) (male ICR mice): > 500 mg/kg

Compound: Nc1nc(Cl)cc(NCC2(CO)CC(c3ccccc3)C2)n1 (centres unmarked) [compound 47]
mouse acute toxicity [lethal dose] (minimum lethal dose) (male ICR mice): > 500 mg/kg

IC50 (rotavirus SA-11 strain; [2]): 2.2 µg/mL (≈ 9.23 µM)
Compound: COc1cc(NCC2(CO)CCC2)nc(N)n1 [compound 86]

IC50 (rotavirus SA-11 strain; [2]): 1.1 µg/mL (≈ 4.48 µM)
Compound: CC(C)(CO)CNc1nc(N)nc(Cl)c1N [compound 24]
CC50 at 48 h [1]: 56.2 µg/mL (≈ 229 µM)
antiviral index (ED50 /ID50) (rotavirus SA-11 strain): 51.1

Compound: Nc1ncc(Br)c(NCC2(CO)CC(CCc3ccccc3)C2)n1 (centres unmarked) [compound No. 7]
mouse acute toxicity [lethal dose] (minimum lethal dose) (male ICR mice): > 500 mg/kg

Compound: Nc1nc(O)c(N)c(NCC2(CO)CC2)n1 [compound 104]
IC50 (rotavirus SA-11 strain; [2]): 0.6 µg/mL (≈ 2.66 µM)
mouse acute toxicity [lethal dose] (minimum lethal dose) (male ICR mice): > 1000 mg/kg

Compound: Nc1nc(Cl)c(N)c(NCC2(CO)CCC2)n1 [compound 59]
CC50 at 48 h [1]: 3.6 µg/mL (≈ 14 µM)
antiviral index (ED50 /ID50) (rotavirus SA-11 strain): 2
IC50 (rotavirus SA-11 strain; [2]): 1.9 µg/mL (≈ 7.37 µM)
mouse acute toxicity [lethal dose] (minimum lethal dose) (male ICR mice): > 500 mg/kg

Compound: Cl.Cl.Nc1nc(Cl)c(N)c(NCCO)n1 [compound No. 112, 6-Chloro-2,5-diamino-4-[(2-hydroxyethyl)amino]pyrimidine dihydrochloride]
mouse acute toxicity [lethal dose] (minimum lethal dose) (male ICR mice): > 1000 mg/kg

Compound: Nc1nc(Cl)c(N)c(NCCCO)n1 [compound No. 113, 6-Chloro-2,5-diamino-4-[(3-hydroxypropyl)amino]pyrimidine]
CC50 at 48 h [1]: > 100 µg/mL
antiviral index (ED50 /ID50) (rotavirus SA-11 strain): > 38
IC50 (rotavirus SA-11 strain; [2]): 2.6 µg/mL (≈ 11.9 µM)
mouse acute toxicity [lethal dose] (minimum lethal dose) (male ICR mice): > 1000 mg/kg

Compound: Nc1nc(Cl)cc(NCC2(CO)CCC2)n1 [compound No. 35, 2-Amino-6-chloro-4-[[(1-hydroxymethyl-1-cyclobutyl)methyl]amino]-pyrimidine]
IC50 (rotavirus SA-11 strain; [2]): 7.8 µg/mL (≈ 32.1 µM)
mouse acute toxicity [lethal dose] (minimum lethal dose) (male ICR mice): > 500 mg/kg

Compound: Nc1nccc(NCC2(CO)CC(CCc3ccccc3)C2)n1 (centres unmarked) [compound No. 5]
mouse acute toxicity [lethal dose] (minimum lethal dose) (male ICR mice): > 500 mg/kg

IC50 (rotavirus SA-11 strain; [2]): 12.6 µg/mL (≈ 40.1 µM)
Compound: Nc1nccc(NCC2(CO)CC(OCc3ccccc3)C2)n1 (centres unmarked) [compound No. 3]

Compound: Nc1nc(Cl)cc(NCC2(CO)CC(Cc3ccccc3)C2)n1 (centres unmarked) [compound 43]
mouse acute toxicity [lethal dose] (minimum lethal dose) (male ICR mice): > 500 mg/kg

Compound: Nc1nc(Cl)cc(NCC2(O)CCC2)n1 [compound 28]
CC50 at 48 h [1]: > 30 µg/mL
antiviral index (ED50 /ID50) (rotavirus SA-11 strain): > 10
IC50 (rotavirus SA-11 strain; [3]): 3 µg/mL (≈ 13.1 µM)
